Assay results published in the METLIN SMRT retention time set (Domingo-Almenara et al. 2019).

Test: gradient 5% acetonitrile 3 min, to 50% in 2 min, to 85% in 15 min, held 3 min, 100 µL/min
Settings: column: Zorbax Extend-C18 2.1 x 50 mm; eluents: water / acetonitrile, 0.1% formic acid
Outline: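 A Zorbax Extend-C18 column (2.1 × 50 mm, 1.8 μm) run at 100 μL/min with water and acetonitrile, both containing 0.1% formic acid, separated mixtures of ~100 pure standards. The HPLC was coupled to a quadrupole time-of-flight mass spectrometer operated in positive and negative ionization mode, with dead and dwell volumes of 40 μL and 900 μL. Each retention time was taken from a computationally picked adduct peak that was then manually inspected.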

RP-LC retention time [s]	Structure (SMILES)
734	COc1ccc(C2CC(=O)Nc3c(C(=O)O)cn(-c4ccc(F)cc4)c32)cc1OC (stereo unspecified)
679	Cc1csc(-c2cc(S(=O)(=O)NCCN3CCC(C)CC3)cn2CC(=O)N2CCCCC2)n1
799	Cn1c(=O)c(N2CCC(NC(=O)NCc3ccccc3)CC2)nc2ccccc21
822	O=C(NCC(=O)N1CCCc2ccccc21)c1ccccc1Br
1070	CCn1cc(-c2nc(C(=O)NCc3ccc(F)cc3Cl)cs2)c2cccnc21
709	Cc1nn(-c2ccc(N3CCOCC3)nn2)c(C)c1CCC(=O)Nc1ccccc1F
713	CN1CCN(c2nc3c(c(Nc4ccccc4)n2)C(=O)CC(C)(C)C3)CC1
647	O=C(Nc1ccc(-c2cn3cccnc3n2)cc1)c1ccc(F)c(F)c1
807	O=C(CCC1CCCC1)NCCc1noc(C2CC2)n1
849	CCn1nccc1C(=O)N1CCCC1c1ccccc1Cl (stereo unspecified)
881	O=C(Cc1csc2nc(-c3ccccc3)cn12)Nc1ccc(Cl)cc1F
888	CCOC(=O)CN1N=C(C(=O)N2CCC(C)CC2)S(=O)(=O)c2ccccc21
905	CCNC(=O)c1cc2c(n(-c3ccc(C(C)C)cc3)c1=O)CCCC2=O
730	Cc1cc(NS(=O)(=O)c2cc(-c3[nH]ncc3C(=O)N3CCCC3)oc2C)ccc1F
953	CCCS(=O)(=O)c1nc2ccc(NS(=O)(=O)Cc3ccc(Cl)cc3)cc2s1
777	COc1ccccc1Cc1noc(C2CN(C(=O)c3cncc(Br)c3)C2)n1
562	Cn1c(C2CCN(C(=O)c3cc4c(s3)CCCC4)C2)nc2ccncc21 (stereo unspecified)
614	CCN(CC)CCNC(=O)CN1C(=O)C2CCCCN2c2ccc(C(=O)N3CCCC3)cc21 (stereo unspecified)
568	Cc1nc2cccnc2n1-c1cccc(C(=O)N2CCN(c3ccccn3)CC2)c1

RP-LC retention time [s]	Structure (SMILES)
924	COc1ccccc1CC(=O)Nc1ccc(-c2nc(Cn3nc(C)cc3C)c(C)o2)cc1
951	COc1ccccc1-c1nnc(-c2cc(S(=O)(=O)N3CCCC3)ccc2Cl)o1
892	COc1cc(Nc2ncc(C(=O)O)c(C(C)C)n2)cc(OC)c1
1270	Cc1nc(-c2cc(S(=O)(=O)N3CCN(c4cccc(Cl)c4)CC3)c(C)s2)cs1
1170	CC1CCc2nc(NC(=O)c3cc(Cl)sc3Cl)sc2C1 (stereo unspecified)
550	Cc1ccc2c(C(=O)NCCc3cccnc3)cc(NC(=O)C(C)C)cc2n1
882	COCCCNC(=O)c1cc2c(n(-c3ccc(C(C)C)cc3)c1=O)CCCC2=O
620	CCCNC(=O)c1cc(=O)[nH]c2ccccc12
699	Cc1cc(NS(=O)(=O)c2cc(-c3[nH]ncc3C(=O)N(C)C)oc2C)ccc1F
844	COC(=O)C1=C(C)NC(C)=C(C(=O)OC2CCCN(Cc3ccccc3)C2)C1c1cccc([N+](=O)[O-])c1 (stereo unspecified)
680	CC(C)n1cnc2cc(CNC(=O)Cc3cccc(C(F)(F)F)c3)ccc21
935	O=C(NCCC1CCN(S(=O)(=O)c2ccc(F)cc2)CC1)Nc1ccc(F)cc1F
1090	CCc1ccc(-c2cc(C(=O)N3CCN(c4ncccn4)CC3)c3ccccc3n2)s1
768	Cc1nc2ccn(Cc3ccco3)c(=O)c2cc1C(=O)NCCc1c[nH]c2ccccc12
760	COc1ccccc1CNC(=O)Cn1c(=O)c2cc(C3CC3)nn2c2ncccc21
872	O=C(NCc1ccco1)c1nn(-c2ccc(F)cc2)c2ccccc2c1=O
1170	O=C(NCc1ccc(Cl)cc1)c1cc2sccc2n1Cc1ccc(F)cc1
606	CCc1nc2cc(N3CCCC(C(=O)NC(C)c4cccnc4)C3)cnc2nc1CC (stereo unspecified)

Second part, the molecule before the results:

Structure (SMILES)	RP-LC retention time [s]
COc1ccc(Cc2nc3nccc(-c4ccccn4)n3n2)cc1	768
CC(C)Cn1cc(CCNC(=O)Nc2ccc(F)cc2)c2cccnc21	812
CCOCC(=O)Nc1ccc(-c2nnc(CC)o2)cc1	657
Cc1nc2cc(-c3noc(C4(c5ccccc5)CC4)n3)ccc2o1	1110
Cc1ccc(C)c(NS(=O)(=O)c2ccc(-c3c(C)noc3C)cc2)c1	996
Cc1ccccc1-n1c(=O)c2sccc2n(Cc2nc(-c3ccc(Cl)c(F)c3)no2)c1=O	1120
CC(C)C(NC(=O)c1cccc(C#N)c1)C(=O)N1CCN(c2ccccn2)CC1 (stereo unspecified)	620
O=C(NCCN1CCOCC1)C1CN(C(=O)c2ccccc2)CC12CCCCC2 (stereo unspecified)	605
COCCN1C(=O)c2ccccc2C(C(=O)NCCC(C)C)C1c1cccs1 (stereo unspecified)	874
CC(C)n1cnc(S(=O)(=O)N2CCCC(C(=O)NCCCc3ccccc3)C2)c1 (stereo unspecified)	806
COC(=O)c1ccc(NC(=O)Cn2c3cc(Cl)ccc3c(=O)n2C(C)(C)C)cc1	1300
COc1ccc2c(c1)C1(CCN(S(=O)(=O)c3ccc(C)cc3)C1)C(=O)N2C (stereo unspecified)	929
Cc1cc(=O)n2c3ccccc3n(CC(O)CN3CCN(c4ccccc4)CC3)c2c1C#N (stereo unspecified)	670
CCc1ccc(S(=O)(=O)NCCOc2ccc(-c3ccco3)nn2)s1	804
CCN1CCn2cc(S(=O)(=O)Nc3cc(C)ccc3C)cc2C1=O	752
Cc1ccsc1-c1nnc(CC(=O)N2CCN(C3CCCCC3)CC2)o1	616
O=S(=O)(c1ccc(-c2ccno2)s1)N1CCN(c2ccccn2)CC1	680
O=C(NCCCc1ccccc1)C1CCCN(C(=O)Cc2cccc3ccccc23)C1 (stereo unspecified)	944
CCN1CCN(CCCNC(=O)CN2CCSc3ccccc32)CC1	580
CC(C)c1ccc(-c2csc(Nc3ccc(S(N)(=O)=O)cc3)n2)cc1	1010
CCOC(=O)c1c(C)[nH]c(C(=O)N2CCC(CC(=O)N3CCCCC3)CC2)c1C	741
CC(C(=O)N1CCN(C)CC1)n1c2ccccc2c2cnn(C)c(=O)c21 (stereo unspecified)	612
O=C(CC1CCCCC1)N1CCN(c2ccc(=O)n(-c3ccc(F)cc3)n2)CC1	901
Cc1ccc(-c2nc3ncccn3c2Nc2cc(C)ccc2C)cc1	825
Cc1ccccc1S(=O)(=O)N1CCC(Cc2nncn2-c2ccccc2)CC1	827
Cc1[nH]c(C)c(S(=O)(=O)N2CCC(C(=O)N3CCC(C)CC3)CC2)c1C(=O)N1CCCCC1	760
Cc1ccc(CN2CC(n3c(C)cnc3-c3ccccc3)C2)s1	555
COc1ccc(-c2noc(-c3nc(-c4cccnc4)no3)n2)cc1	966
CCN(CC)S(=O)(=O)c1cccc(-c2cn3cc(C)ccc3n2)c1	598
